A short description of one data set: Solubility in DMA. Type of data set: physicochemical.
The nature of a further data set: Solubility in water. In kind it is physicochemical.
The nature of data set [1]: Toxicity study (ED50 orally and intraperitoneally, method of Miller and Tainter). The note with it: in vivo. The method, then: The most interesting compounds of the present invention were subjected to toxicity studies.
The ED50 was determined orally and intraperitoneally and calculated by the method of MILLER and TAINTER (Proc. Soc. Exper. […]. 1944, 57, 261).

Data set [2] deals with mice. The data set is described as follows: Writhing Syndrome (P.B.Q.), analgesic activity after I.P. p-benzoquinone. Type of data set: in vivo. The following applies: Mus musculus, po, P.O., read-out: Writhing Syndrome PBQ-ED50 (P.O.). As to the method: (a) Writhing Syndrome (P.B.Q.)
After I.P. administration of p-benzoquinone to mice, the products were tested by the method of R. OKUN, S. C. LIDDON and L. LASAGNA, J. Pharmacol. Exptl. Therap., 1963, 139, 107. The results are expressed in ED50 in Table 1.
For orientation: Writhing tests count abdominal constrictions after an irritant is injected.

The test system of data set [3] is mice. Briefly: Hot Plate, analgesic activity. In kind it is in vivo. The following applies: 50 mg/kg SC; mice. As to the method:
The products were tested subcutaneously in mice (50 mg/kg) by the method of N. B. EDDY and D. LEIMBACH, J. Pharm. Exptl. Therap., 1953, 107, 385.

[4] abbreviates: ip, intraperitoneally, read-out: ED50 intraperitoneally.
[5] abbreviates: po, per os, read-out: ED50 per os.

Molecules are shown by their SMILES. Where a name gives a salt, the structure may show the parent alone. Read-outs that look alike come from different tables or passages of the source.

Consider `CCOC(=O)[C@]1(c2ccccc2)C[C@@H]1CN(Cc1ccccc1)Cc1ccccc1` (relative stereo) [Example 11, Hydrochloride of 1-phenyl-1-ethoxycarbonyl 2-dibenzyl amino-methyl cyclopropane (Z)], for which the “Solubility in DMA” value in “Solubility in DMA” is given as 2%. For the same compound, in “Solubility in water”, the “Solubility in water (in words)” value is recorded as “insoluble in water”.

In the case of `CCOC(=O)[C@]1(c2ccccc2)C[C@@H]1CN(C)C1CCCCC1` (relative stereo) [Example 19, Fumarate of 1-phenyl 1-ethoxycarbonyl 2-N-methyl-N-cyclohexyl-aminomethyl cyclopropane (Z)], in the data set “Solubility in DMA”, the “Solubility in DMA” value was determined as 5%. Also, in the data set “Solubility in water”, the “Solubility in water (in words)” value is listed as “insoluble in water”.

For `CCOC(=O)[C@]1(c2ccccc2)C[C@@H]1CN1CCC(c2ccccc2)CC1` (relative stereo) [Example 20, Hydrochloride of 1-phenyl 1-ethoxycarbonyl 2-(4'-phenylpiperidino)methyl cyclopropane (Z)], the “Solubility in DMA” value in “Solubility in DMA” is recorded as 50%. Further, in “Solubility in water”, the “Solubility in water (in words)” value is listed as “insoluble in water”.

`CCOC(=O)[C@]1(c2cccc(Cl)c2)C[C@@H]1CN(C)C` (relative stereo) [Example 44, Maleate of 1-(m-chlorophenyl) 1-ethoxycarbonyl 2-dimethylaminomethyl cyclopropane (Z)]: the LD50 was 170 mg/kg in data set [1] (setting [4]) and 760 mg/kg in data set [1] (setting [5]). The ED50 (usually the dose at which the effect has come halfway, by size or by number of responders) in the data set on mice [2] was found to be 30 mg/kg. Besides, the “Hot Plate reaction time” value in the data set on mice [3] came to 28 s.

Turning to `CCOC(=O)[C@]1(c2ccc(Cl)c(Cl)c2)C[C@@H]1CN(C)C` (relative stereo) [Example 45, Hydrochloride of 1-(3,4 dichlorophenyl) 1-ethoxycarbonyl 2-dimethylaminomethyl cyclopropane (Z)], the LD50 in data set [1] (setting [4]) amounted to 170 mg/kg; in data set [1] (setting [5]), 550 mg/kg. In the data set on mice [2], the ED50 amounted to 60 mg/kg. Moreover, the “Hot Plate reaction time” value with mice [3] came out at 26 s.

As to `COC(=O)[C@]1(c2ccc(N)cc2)C[C@@H]1CN(C)C` (relative stereo) [Example 46], the LD50 in data set [1] (setting [4]) was found to be 100 mg/kg; in data set [1] (setting [5]) it was 420 mg/kg. The ED50 with mice [2] stood at 34 mg/kg. Besides, the “Hot Plate reaction time” value with mice [3] stood at 25 s.

In the case of `COC(=O)[C@]1(c2ccc([N+](=O)[O-])cc2)C[C@@H]1CN(C)C` (relative stereo) [Example 47, Hydrochloride of 1-(p-nitrophenyl) 1-methoxycarbonyl 2-dimethylaminomethyl cyclopropane (Z)], the LD50 is 250 mg/kg in data set [1] (setting [4]) and 1000 mg/kg in data set [1] (setting [5]). Further, in the data set on mice [2], the ED50 is 21 mg/kg. Besides, in the data set with mice [3], the “Hot Plate reaction time” value came to 20 s.

As for `CCOC(=O)[C@]1(c2ccc(OC)cc2)C[C@@H]1CN(C)C` (relative stereo) [Example 48, Hydrochloride of 1-(p-methoxyphenyl) 1-ethoxycarbonyl 2-dimethylaminomethyl cyclopropane (Z)], the LD50 in data set [1] (setting [4]) came out at 110 mg/kg; in data set [1] (setting [5]), 420 mg/kg. The ED50 in the data set on mice [2] worked out at 95 mg/kg. Moreover, the “Hot Plate reaction time” value in the data set on mice [3] was found to be 29 s.

(Values after patent US4507318A, “1-Aryl 2-aminomethyl cyclopropane carboxylates (Z) as drugs in the treatment of pain” (Pierre Fabre S.A., priority 1981, dated 1985).)
